Experimental data taken from patent publication US12612386B2, “Heteroaryl-triazole compounds as pesticides” (Bayer Aktiengesellschaft, priority 2020, dated 2026).

Tests used:
Type in all cases: in vivo
[1] = tested on: green peach aphid (Myzus persicae); test: Myzus persicae spray test (MYZUPE); settings: 120 h; for mortality at 100 g/ha: after 5 days
How it was run: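 Chinese cabbage leaf disks infested with all instars of Myzus persicae were sprayed with compound formulated in acetone/dimethylformamide and diluted in water with 1000 ppm alkylarylpolyglycol ether emulsifier. Percent mortality was scored after 5 days, 100% meaning all aphids killed.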

[2] = tested on: fall armyworm larvae (Spodoptera frugiperda); test: whole plant or invertebrate; settings: 168 h
How it was run: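 Maize leaf sections sprayed with compound in acetone/DMF with alkylarylpolyglycol ether emulsifier diluted in water, then infested with fall armyworm larvae once dry. Mortality (%) scored after 7 days; 100% = all caterpillars killed.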

[3] = tested on: adult mosquitoes Aedes aegypti strain MONHEIM; test: Aedes aegypti test (AEDSAE surface treatment & contact assay); settings: 24 hours after contact, read-out: efficacy (mortality); for mortality at 20 mg/m2: surface concentration 20 mg/m^2, 30 min exposure; for mortality at 4 mg/m2: surface concentration 4 mg/m^2, 30 min exposure
Procedure: Aedes aegypti Test (AEDSAE Surface Treatment & Contact Assay)
(§1) Solvent: Aceton+2000 ppm rapeseed oil methyl ester (RME)
(§2) This solution is pipetted onto a glazed tile and after evaporation of the acetone, adult mosquitoes of the species Aedes aegypti strain MONHEIM are placed onto the dried surface. The exposure time is 30 minutes. Mortality in percent (%) is determined 24 hours after contact of the insects to the treated surface. 100% mortality means that all tested insects are dead, whereas 0% means that no insect died.

[4] = tested on: adult cat fleas (Ctenocephalides felis); test: Ctenocephalides felis in-vitro contact test, adult cat flea; settings: 5 μg/cm^2 (=500 g/ha), after 48 hours
Procedure: Ctenocephalides felis—In-Vitro Contact Tests Adult Cat Flea
(§3) 9 mg compound is solved in 1 mL acetone and diluted with acetone to the desired concentration. 250 μL of the test solution is filled in 25 mL glass test tubes and homogeneously distributed on the inner walls by rotation and tilting on a shaking device (2 h at 30 rpm). With a compound concentration of 900 ppm, an inner surface of 44.7 cm^2 and a homogeneous distribution, a dose of 5 μg/cm^2 is achieved.
(§4) After the solvent has evaporated, each test tube is filled with 5-10 adult cat fleas (Ctenocephalides felis), closed with a perforated lid and incubated in a lying position at room temperature and relative humidity. After 48 hours efficacy is determined. The fleas are patted on the ground of the tubes and are incubated on a heating plate at 45-50° C. for at most 5 minutes. Immotile or uncoordinated moving fleas, which are not able to escape the heat by climbing upwards, are marked as dead or moribund.
An efficacy of 100% means all fleas are dead or moribund; 0% means no fleas are dead or moribund.

[5] = tested on: larvae of the southern green stink bug (Nezara viridula); test: whole plant or invertebrate; settings: 96 h
How it was run: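 Compound in acetone/DMF was diluted in water with 1000 ppm alkylarylpolyglycol ether emulsifier. Barley plants were sprayed with it, then infested with Nezara viridula larvae. Mortality % was scored after 4 days (100% = all killed).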

[6] = tested on: adult brown dog ticks (Rhipicephalus sanguineus); test: Rhipicephalus sanguineus in-vitro contact test, adult brown dog ticks; settings: 48 h, read-out: efficacy (ticks dead or moribund)
Procedure: Rhipicephalus sanguineus—In-Vitro Contact Tests with Adult Brown Dog Ticks
as §3
as §4, with “brown dog ticks (Rhipicephalus sanguineus),” for “cat fleas (Ctenocephalides felis),”, “ticks” for “fleas”, “ticks,” for “fleas,”
An efficacy of 100% means all ticks are dead or moribund; 0% means no ticks are dead or moribund.

[7] = tested on: larvae of the banded cucumber beetle (Diabrotica balteata); test: Diabrotica balteata spray test; settings: 168 h, 100 g/ha (=32 μg/well), after 7 days, read-out: efficacy (seedling growth)
How it was run: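 Germinated wheat seeds on agar (5 per well) were sprayed with compound formulated in acetone/DMF and diluted in water with 1000 ppm emulsifier. Each unit was then infested with 10–20 larvae. Efficacy % was scored after 7 days as seedling growth relative to an untreated, uninfested control (100% = normal growth).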

[8] = tested on: cattle tick larvae (Rhipicephalus microplus), strain Parkhurst, resistant against synthetic pyrethroids; test: Rhipicephalus (Boophilus) microplus in-vitro contact test, larval cattle tick; settings: 5 μg/cm^2 (=500 g/ha), after 48 hours
Procedure: Rhipicephalus (Boophilus) Microplus—In-Vitro Contact Tests Larval Cattle Tick (Strain Parkhurst, Resistant Against Synthetic Pyrethroids)
as §3
After the solvent has evaporated, each test tube is filled with 20-50 cattle tick larvae (Rhipicephalus microplus), closed with a perforated lid and incubated in a horizontal position at 85% relative humidity and 27° C. in an incubator. After 48 hours efficacy is determined. The larvae are patted on the ground of the tubes and negative geotactic behavior is recorded.
An efficacy of 100% means all larvae are dead or moribund; 0% means no larvae are dead or moribund.

[9] = tested on: adult flies Musca domestica strain WHO-N; test: Musca domestica test (MUSCDO surface treatment & contact assay); settings: 24 hours after contact, read-out: efficacy (mortality); for mortality at 20 mg/m2: surface concentration 20 mg/m^2, 30 min exposure; for mortality at 4 mg/m2: surface concentration 4 mg/m^2, 30 min exposure
Procedure: Musca domestica Test (MUSCDO Surface Treatment & Contact Assay)
as §1
as §2, with “flies” for “mosquitoes”, “Musca domestica” for “Aedes aegypti”, “WHO-N” for “MONHEIM”

[10] = tested on: brown planthopper (Nilaparvata lugens); test: Nilaparvata lugens spray test; settings: 96 h
How it was run: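 Rice plants (Oryza sativa) sprayed with compound formulated in acetone/DMF with alkylarylpolyglycol ether emulsifier (1000 ppm in diluting water), then infested with planthoppers. Mortality (%) scored after 4 days; 100% = all insects killed, 0% = none killed.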

[11] = tested on: adult mosquitoes Culex quinquefasciatus strain P00; test: Culex quinquefasciatus test (CULXFA surface treatment & contact assay); settings: 24 hours after contact, read-out: efficacy (mortality); for mortality at 20 mg/m2: surface concentration 20 mg/m^2, 30 min exposure; for mortality at 4 mg/m2: surface concentration 4 mg/m^2, 30 min exposure
Procedure: Culex quinquefasciatus Test (CULXFA Surface Treatment & Contact Assay)
as §1
as §2, with “Culex quinquefasciatus” for “Aedes aegypti”, “P00” for “MONHEIM”

[12] = tested on: adult animals Blattella germanica strain PAULINIA; test: Blattella germanica test (BLTTGE surface treatment & contact assay); settings: surface concentration 20 mg/m^2, 30 min exposure, 24 hours after contact, read-out: efficacy (mortality)
Procedure: Blattella germanica Test (BLTTGE Surface Treatment & Contact Assay)
as §1
In order to produce a sufficient, active ingredient containing solution it is necessary to solve the test compound in the solvent-mix (acetone at 2 mg/ml/RME 2000 ppm). This solution is pipetted onto a glazed tile and after evaporation of the acetone, adult animals of the species Blattella germanica strain PAULINIA are placed onto the dried surface. The exposure time is 30 minutes.
Mortality in percent (%) is determined 24 hours after contact of the insects to the treated surface. 100% mortality means that all tested insects are dead, whereas 0% means that no insect died.

SMILES	mortality at 100 g/ha [1]	mortality at 100 g/ha [2]	mortality at 20 mg/m2 [3]	efficacy (fleas dead or moribund) [4]	mortality at 500 g/ha [5]	pest or weed control at 5 µg/cm2, 500 g/ha [6]	pest or weed control at 32 µg/disc, 100 g/ha [7]	efficacy (larvae dead or moribund) [8]	mortality at 20 mg/m2 [9]	mortality at 500 g/ha [10]	mortality at 4 mg/m2 [3]	mortality at 4 mg/m2 [9]	further results
C[C@H](NC(=O)c1cc(Br)cc(OC(F)F)c1)c1ncnn1-c1cc(C#N)ncn1 [I-3]	90%	100%	80 to 100%	100%	90%	100%	100%	100%	–	–	–	–	mortality at 100 g/ha [5]: 90%
Cc1nc([C@H](C)NC(=O)c2cc(C(F)(F)F)cc(C(F)(F)F)c2)n(-c2cc(C#N)ncn2)n1 [I-5]	90%	100%	80 to 100%	90%	–	100%	100%	100%	–	–	–	–	–
CC(NC(=O)c1cc(OC(F)(F)F)cc(C2CC2)c1)c1ncnn1-c1cc(C#N)ncn1 (stereo not drawn) [I-8, N-{1-[1-(6-cyanopyrimidin-4-yl)-1H-1,2,4-triazol-5-yl]ethyl}-3-cyclopropyl-5-(trifluoromethoxy)benzamide]	90%	100%	80 to 100%	–	–	–	100%	100%	80 to 100%	100%	80 to 100%	–	–
C[C@H](NC(=O)c1cc(OC(F)(F)F)cc(C2CC2)c1)c1ncnn1-c1cc(C#N)ncn1 [I-10]	–	100%	80 to 100%	–	–	–	100%	100%	80 to 100%	–	80 to 100%	–	–
C[C@H](NC(=O)c1cc(OC(F)(F)F)cc(S(=O)(=O)C(F)F)c1)c1ncnn1-c1cc(C#N)ncn1 [I-20]	100%	100%	80 to 100%	–	–	–	100%	–	80 to 100%	–	80 to 100%	–	mortality at 20 mg/m2 [11]: 80 to 100%
C[C@H](NC(=O)c1cc(OC(F)(F)F)cc(C2(C#N)CC2)c1)c1nc(C2CC2)nn1-c1cc(C(N)=O)ncn1 [I-33]	–	100%	80 to 100%	100%	–	–	100%	100%	80 to 100%	100%	80 to 100%	80 to 100%	mortality at 4 mg/m2 [11]: 80 to 100%; mortality at 20 mg/m2 [11]: 80 to 100%
C[C@H](NC(=O)c1cc(Br)cc(Br)c1)c1ncnn1-c1cc(C(N)=O)ncn1 [I-34, 6-[5-[(1S)-1-[(3,5-dibromobenzoyl)amino]ethyl]-1,2,4-triazol-1-yl]pyrimidine-4-carboxamide]	90%	100%	80 to 100%	100%	100%	100%	100%	100%	–	–	80 to 100%	–	mortality at 100 g/ha [5]: 100%
C[C@H](NC(=O)c1cc(OC(F)(F)F)cc(OC(F)(F)F)c1)c1nc(C2CC2)nn1-c1cc(C(N)=O)ncn1 [I-36]	–	100%	80 to 100%	–	–	80%	100%	100%	80 to 100%	–	–	80 to 100%	–
C[C@H](NC(=O)c1cc(C#N)cc(OC(F)(F)F)c1)c1nc(C2CC2)nn1-c1cc(C(N)=O)ncn1 [I-39]	–	100%	–	–	–	–	100%	–	80 to 100%	100%	–	80 to 100%	–
CNC(=O)c1cc(-n2ncnc2[C@H](C)NC(=O)c2cc(Cl)cc(S(=O)(=O)C(F)(F)F)c2)ncn1 [I-86]	100%	100%	80 to 100%	–	100%	–	100%	–	80 to 100%	–	80 to 100%	–	Emax at 4 g/ha ([1]; MYZUPE, 4 g ai/ha, 5 dat (Table 4), read-out: % Efficacy): 100%; Emax at 20 g/ha ([1]; MYZUPE, 20 g ai/ha, 5 dat (Table 4), read-out: % Efficacy): 100%; Emax at 100 g/ha ([1]; MYZUPE, 100 g ai/ha, 5 dat (Table 4), read-out: % Efficacy): 100%; Emax at 20 g/ha ([2]; SPODFR, 20 g ai/ha, 7 dat (Table 4), read-out: % Efficacy): 100%; Emax at 100 g/ha ([2]; SPODFR, 100 g ai/ha, 7 dat (Table 4), read-out: % Efficacy): 100%
CNC(=O)c1cc(-n2ncnc2[C@H](C)NC(=O)c2cc(OC(F)(F)F)cc(S(=O)(=O)C(F)(F)F)c2)ncn1 [I-90]	100%	100%	80 to 100%	–	100%	–	100%	–	80 to 100%	90%	80 to 100%	80 to 100%	mortality at 4 mg/m2 [11]: 80 to 100%; mortality at 20 mg/m2 [11]: 80 to 100%; mortality at 20 mg/m2 [12]: 80 to 100%
C[C@H](NC(=O)c1cc(OC(F)F)cc(OC(F)(F)F)c1)c1ncnn1-c1cc(C(N)=O)ncn1 [I-141]	90%	100%	–	100%	100%	100%	100%	100%	–	100%	–	–	–
